# Results as given in patent US20050214378A1, “Stealth lipid nanocapsules, methods for the preparation thereof and use thereof as a carrier for active principle(s)” (ETHYPHARM, priority 2002, published 2005).
# Assay: Solubility of paclitaxel and docetaxel in triglycerides
# Assay type: physicochemical
# Conditions: no recrystallization at room temperature; for Solubility in Labrafac CC: triglyceride Labrafac CC, C8 content 56.7%; for Solubility in Miglyol 810 N: triglyceride Miglyol 810 N, C8 content 70.4%; for Solubility in Tricaprylin: triglyceride Tricaprylin, C8 >99%
# Experimental: A solution of docetaxel or paclitaxel in triglycerides, which will constitute the inner core of the lipid nanocapsules, is prepared by dissolving the drug into the triglyceride at 75° C. The amount of drug is adjusted in order to obtain solutions that will not recrystallize upon cooling to room temperature.
Solubility in Labrafac CC [% w/w],Solubility in Miglyol 810 N [% w/w],Solubility in Tricaprylin [% w/w],SMILES
2,3.9,7,"CC(=O)O[C@@]12CO[C@@H]1C[C@H](O)[C@@]1(C)C(=O)[C@H](O)C3=C(C)[C@@H](OC(=O)[C@H](O)[C@@H](NC(=O)OC(C)(C)C)c4ccccc4)C[C@@](O)([C@@H](OC(=O)c4ccccc4)[C@H]21)C3(C)C [Docetaxel, docetaxel]"
1.6,2.7,6,"CC(=O)O[C@H]1C(=O)[C@@]2(C)[C@H]([C@H](OC(=O)c3ccccc3)[C@]3(O)C[C@H](OC(=O)[C@H](O)[C@@H](NC(=O)c4ccccc4)c4ccccc4)C(C)=C1C3(C)C)[C@]1(OC(C)=O)CO[C@@H]1C[C@@H]2O [Paclitaxel, paclitaxel]"
